In patent publication US20250319108A1, “COMBINATIONS” (AN2 Therapeutics, Inc., priority 2021, published 2025):
Values after ≈ are worked out from the molar mass of the structure shown. Where a name gives a salt, the structure may show the parent alone. Read-outs that look alike come from different tables or passages of the source.

How the values were obtained:
[1] = system: M. avium ATCC 700898 isolate 32-8A; test: MIC, EBO selected isolate; assay type: cell-based
Description: (§1) Minimum inhibitory concentration (MIC) determinations: MIC values for the putative EBO resistant mutants were determined by broth microdilution method (BMD) in cation-adjusted Mueller Hinton broth according to Clinical and Laboratory Standards Institute document M24-A3 (Clinical and Laboratory Standards Institute. Susceptibility Testing of Mycobacteria, Nocardia spp., and Other Aerobic Actinomycetes. 3rd ed. CLSI standard M24. Clinical and Laboratory Standards Institute, Wayne, PA: 2018). Agar MIC values were determined as essentially described by CLSI M24-A3 using 7H10 Middlebrook agar and 5% OADC.
(§2) Resistant colonies were confirmed by replica plating on agar plates containing antibiotic at the same concentration used to select resistance. Control plates containing no drug were prepared for inoculum determination. The RF was calculated by dividing the total CFU/mL of resistant colonies by the total CFU/mL of the inoculum.

[2] = system: M. avium ATCC 700898 isolate 16-3A; test: MIC, EBO selected isolate; assay type: cell-based
Description: as §1, §2

[3] = system: M. avium ATCC 700898 isolate 32-5A; test: MIC, EBO selected isolate; assay type: cell-based
Description: as §1, §2

[4] = system: M. avium ATCC 700898 isolate 64-3A; test: MIC, EBO selected isolate; assay type: cell-based
Description: as §1, §2

[5] = system: M. avium ATCC 700898 isolate 64-4A; test: MIC, EBO selected isolate; assay type: cell-based
Description: as §1, §2

M. avium ATCC 700898 WT = test: MIC, parent strain; assay type: cell-based
Description: as §1, §2

M. avium ATCC 700898 [6] = test: Agar MIC; assay type: cell-based; conditions: 7H10 Middlebrook agar, 5% OADC; for MIC: Mycobacterium avium, ATCC700898
Description: as §1, §2

M. avium ATCC 700858 = test: MIC, broth microdilution; assay type: cell-based; conditions: for MIC: Mycobacterium avium, ATCC700858, read-out: In Vitro Activity (MIC)
Description: as §1

M. chimaera 20-S-05 = test: MIC, broth microdilution; assay type: cell-based; conditions: for MIC: 20S05, read-out: In Vitro Activity (MIC)
Description: as §1

[7] = system: M. intracellulare DNA000111; test: MIC, broth microdilution; assay type: cell-based; conditions: for MIC: Mycobacterium intracellulare, read-out: In Vitro Activity (MIC)
Description: as §1

[8] = system: M. peregrinum ATCC 700686; test: MIC, broth microdilution; assay type: cell-based; conditions: for MIC: Mycolicibacterium peregrinum, ATCC700686, read-out: In Vitro Activity (MIC)
Description: as §1

M. avium 2285R = test: MIC, broth microdilution; assay type: cell-based; conditions: for MIC: Mycobacterium avium, read-out: In Vitro Activity (MIC)
Description: as §1

M. abscessus ATCC 19977 = test: MIC, broth microdilution; assay type: cell-based; conditions: for MIC: Mycobacteroides abscessus, ATCC19977, read-out: In Vitro Activity (MIC)
Description: as §1

[9] = system: M. intracellulare 20-S-13; test: MIC, broth microdilution; assay type: cell-based; conditions: for MIC: Mycobacterium intracellulare
Description: as §1

[10] = system: M. avium ATCC 700898 isolate 16-5A; test: MIC, EBO selected isolate; assay type: cell-based
Description: as §1, §2

M. avium ATCC 700898 [11] = assay type: cell-based
Description: as §2

[12] = system: EBO resistant mutants of M. avium ATCC 700898; assay type: cell-based
Description: as §1, §2

[13] = system: M. intracellulare 20-S-13; test: Checkerboard synergy testing with EBO; assay type: cell-based; conditions: M. intracellulare 20-S-13, clarithromycin resistant
Description: Frozen stocks of the drugs were prepared at 5 or 2 mg/ml and frozen in aliquots at −20° C. On the day of the experiment the stocks were thawed and diluted to the appropriate concentration.
Stocks of isolates were prepared and frozen at −80° C. Fresh cultures of each isolate (1-2 weeks) were grown on either 7H10 agar plus 5% OADC or CAMH agar plus 5% OADC for use in each experiment.
(§3) The checkerboard methodology was used to test for synergy and antagonism using Middlebrook 7H9+5% OADC (Dubos et al. Am Rev Tuberc (1947) 56:334-45) as the microbiology growth media. The first antibiotic of the combination, EBO, was serially diluted along the x-axis, whereas the second antibiotic was diluted along the y- axis. Synergistic or antagonistic activity was determined using the sum of the fractional inhibitory concentration (EFIC) index. The FIC index is calculated as the sum of FIC A+FIC B, where FIC A is the MIC of drug A in the combination of drugs A and B divided by the MIC of drug A alone, plus the MIC of drug B in the combination of drugs A and B divided by the MIC of drug B alone. A combination of drugs is considered synergistic when the FIC is <0.5, additive when the FIC is >0.5 to 1, indifferent when the FIC is >1 to 2, and antagonistic when the FIC is >2 (EUCAST. Clin. Microbiol. Infect. (2000) 6: 503-508).

[14] = system: NTM strains (5 MAC strains, 2 rapidly growing); test: Checkerboard synergy testing with EBO, summary over strains; assay type: cell-based
Description: as §3

M. avium ATCC 700898 [15] = conditions: Sensititre SLOMYCO plate; cited from earlier work
[16] = Mycobacterium avium, ATCC700898
[17] = 20S13, read-out: In Vitro Activity (MIC)
[18] = 20S13, M. intracellulare 20-S-13, read-out: In Vitro Activity (MIC)

SMILES | MIC ([1]; Mycobacterium avium) | MIC ([2]; Mycobacterium avium) | MIC ([3]; Mycobacterium avium) | MIC ([4]; Mycobacterium avium) | MIC ([5]; Mycobacterium avium) | MIC (M. avium ATCC 700898 WT; [16]) | MIC (M. avium ATCC 700898 [6]) | MIC (M. avium ATCC 700858) | MIC (M. chimaera 20-S-05) | MIC [7] | MIC [8] | MIC (M. avium 2285R) | MIC (M. abscessus ATCC 19977) | MIC [9, 17] | MIC ([10]; Mycobacterium avium) | also measured
CC[C@H]1OC(=O)[C@H](C)[C@@H](O[C@H]2C[C@@](C)(OC)[C@@H](O)[C@H](C)O2)[C@H](C)[C@@H](O[C@@H]2O[C@H](C)C[C@H](N(C)C)[C@H]2O)[C@](C)(OC)C[C@@H](C)C(=O)[C@H](C)[C@@H](O)[C@]1(C)O [CLR, Clarithromycin] | 0.5 µg/mL (≈ 0.668 µM) | 0.5 µg/mL (≈ 0.668 µM) | 1 µg/mL (≈ 1.34 µM) | 0.5 µg/mL (≈ 0.668 µM) | 2 µg/mL (≈ 2.67 µM) | 2 µg/mL (≈ 2.67 µM) | 4 µg/mL (≈ 5.35 µM) | 2 µg/mL (≈ 2.67 µM) | 4 µg/mL (≈ 5.35 µM) | 2 µg/mL (≈ 2.67 µM) | 1 µg/mL (≈ 1.34 µM) | 0.125 µg/mL (≈ 0.167 µM) | 16 µg/mL (≈ 21.4 µM) | > 128 µg/mL | – | –
NC[C@H]1OB(O)c2c(OCCCO)cccc21 [EBO, Epetraborole hydrochloride] | – | – | – | – | – | – | – | – | – | – | – | – | – | – | – | MIC ([10]; EBO selected isolate 16-5A): 64 µg/mL; MIC ([1]; EBO selected isolate 32-8A): >128 µg/mL; MIC ([2]; EBO selected isolate 16-3A): >128 µg/mL; MIC ([3]; EBO selected isolate 32-5A): >128 µg/mL; MIC ([4]; EBO selected isolate 64-3A): >128 µg/mL; MIC ([5]; EBO selected isolate 64-4A): >128 µg/mL; MIC (M. avium ATCC 700898 WT; WT parent strain): 0.5 µg/mL; Resistance Frequency (M. avium ATCC 700898 [11]; EBO selection concentration 16 mg/L): 1.58 × 10^−7; Resistance Frequency (M. avium ATCC 700898 [11]; EBO selection concentration 32 mg/L): 1.21 × 10^−8; Resistance Frequency (M. avium ATCC 700898 [11]; EBO selection concentration 64 mg/L): 8.49 × 10^−9; Spontaneous resistance frequency (M. avium ATCC 700898 [11]; selected on 2-8× agar MIC): 1.58×10^−7 to 8.48×10^−9; Change of MIC value in EBO resistant mutants versus wild-type [12]: ≥ 128 fold; Agar MIC (M. avium ATCC 700898 [6]): 8 µg/mL; In Vitro Activity (MIC) (M. avium ATCC 700858): 2 µg/mL; In Vitro Activity (MIC) (M. chimaera 20-S-05): 2 µg/mL; In Vitro Activity (MIC) [7]: 0.5 µg/mL; In Vitro Activity (MIC) [8]: 0.06 µg/mL; In Vitro Activity (MIC) (M. avium 2285R): 0.5 µg/mL; In Vitro Activity (MIC) (M. abscessus ATCC 19977): 0.06 µg/mL; In Vitro Activity (MIC) ([9]; M. intracellulare 20-S-13): 0.25 µg/mL
CO[C@H]1/C=C/O[C@@]2(C)Oc3c(C)c(O)c4c(c3C2=O)C2=NC3(CCN(CC(C)C)CC3)NC2=C(NC(=O)/C(C)=C\C=C\[C@H](C)[C@H](O)[C@@H](C)[C@@H](O)[C@@H](C)[C@H](OC(C)=O)[C@@H]1C)C4=O [RFB, Rifabutin] | 0.125 µg/mL (≈ 0.148 µM) | 0.06 µg/mL (≈ 0.0708 µM) | 0.06 µg/mL (≈ 0.0708 µM) | 0.06 µg/mL (≈ 0.0708 µM) | 0.25 to 0.5 µg/mL (≈ 0.295 to 0.59 µM) | 0.06 µg/mL (≈ 0.0708 µM) | 0.25 µg/mL (≈ 0.295 µM) | 0.25 µg/mL (≈ 0.295 µM) | 1 µg/mL (≈ 1.18 µM) | 2 µg/mL (≈ 2.36 µM) | 8 µg/mL (≈ 9.44 µM) | 0.125 µg/mL (≈ 0.148 µM) | 32 µg/mL (≈ 37.8 µM) | – | 0.06 µg/mL (≈ 0.0708 µM) | MIC [9, 18]: 0.06 µg/mL (≈ 0.0708 µM)
CC[C@@H](CO)NCCN[C@@H](CC)CO [EMB, Ethambutol] | 8 µg/mL (≈ 39.2 µM) | 4 µg/mL (≈ 19.6 µM) | 4 µg/mL (≈ 19.6 µM) | 4 µg/mL (≈ 19.6 µM) | 8 µg/mL (≈ 39.2 µM) | 4 µg/mL (≈ 19.6 µM) | 8 µg/mL (≈ 39.2 µM) | 8 µg/mL (≈ 39.2 µM) | 4 µg/mL (≈ 19.6 µM) | 32 µg/mL (≈ 157 µM) | 8 µg/mL (≈ 39.2 µM) | 16 µg/mL (≈ 78.3 µM) | 32 µg/mL (≈ 157 µM) | 64 µg/mL (≈ 313 µM) | 4 µg/mL (≈ 19.6 µM) | Interaction between ethambutol and EBO, in words [13]: indifference; Interaction with EBO over the 5 MAC strains tested, in words [14]: synergy was observed with 2 strains and additivity with an additional 2 strains
NCC[C@H](O)C(=O)N[C@@H]1C[C@H](N)[C@@H](O[C@H]2O[C@H](CN)[C@@H](O)[C@H](O)[C@H]2O)[C@H](O)[C@H]1O[C@H]1O[C@H](CO)[C@@H](O)[C@H](N)[C@H]1O [AMK, Amikacin] | 32 µg/mL (≈ 54.6 µM) | 32 µg/mL (≈ 54.6 µM) | 32 µg/mL (≈ 54.6 µM) | 32 µg/mL (≈ 54.6 µM) | 32 µg/mL (≈ 54.6 µM) | – | 32 µg/mL (≈ 54.6 µM) | 16 µg/mL (≈ 27.3 µM) | 32 µg/mL (≈ 54.6 µM) | 16 µg/mL (≈ 27.3 µM) | 2 µg/mL (≈ 3.42 µM) | 8 µg/mL (≈ 13.7 µM) | 64 µg/mL (≈ 109 µM) | – | 32 µg/mL (≈ 54.6 µM) | MIC [9, 18]: 20 µg/mL (≈ 34.2 µM)
CO[C@H]1/C=C/O[C@@]2(C)Oc3c(C)c(O)c4c(O)c(c(/C=N/N5CCN(C)CC5)c(O)c4c3C2=O)NC(=O)/C(C)=C\C=C\[C@H](C)[C@H](O)[C@@H](C)[C@@H](O)[C@@H](C)[C@H](OC(C)=O)[C@@H]1C [rifampin, Rifampin] | – | – | – | – | – | – | – | – | – | – | – | – | – | – | – | MIC variance previously reported for this strain (M. avium ATCC 700898 [15]): 8 fold
COc1nc2ccc(Br)cc2cc1[C@@H](c1ccccc1)[C@@](O)(CCN(C)C)c1cccc2ccccc12 [BDQ, Bedaquiline] | 0.12 µg/mL (≈ 0.216 µM) | 0.06 µg/mL (≈ 0.108 µM) | 0.03 µg/mL (≈ 0.054 µM) | 0.12 µg/mL (≈ 0.216 µM) | 0.06 µg/mL (≈ 0.108 µM) | 0.06 µg/mL (≈ 0.108 µM) | – | 0.06 µg/mL (≈ 0.108 µM) | 0.06 µg/mL (≈ 0.108 µM) | 0.5 µg/mL (≈ 0.9 µM) | 0.06 µg/mL (≈ 0.108 µM) | 0.03 µg/mL (≈ 0.054 µM) | 0.5 µg/mL (≈ 0.9 µM) | > 0.5 µg/mL | 0.06 µg/mL (≈ 0.108 µM) | –
CC(C)/N=c1\cc2n(-c3ccc(Cl)cc3)c3ccccc3nc-2cc1Nc1ccc(Cl)cc1 [CFZ, clofazimine] | 0.25 µg/mL (≈ 0.528 µM) | 0.25 µg/mL (≈ 0.528 µM) | 0.5 µg/mL (≈ 1.06 µM) | 0.5 µg/mL (≈ 1.06 µM) | 0.5 µg/mL (≈ 1.06 µM) | 0.5 µg/mL (≈ 1.06 µM) | – | – | – | – | – | – | – | – | 0.25 µg/mL (≈ 0.528 µM) | –
